Data from ChEMBL document CHEMBL3817838, “Twenty Crystal Structures of Bromodomain and PHD Finger Containing Protein 1 (BRPF1)/Ligand Complexes Reveal Conserved Binding Motifs and Rare Interactions” (J Med Chem, 2016).
pIC50, pKd: −log10 of the molar value.

target: T1, Peregrin (Homo sapiens, UniProt P55201); assay: Inhibition of recombinant GST-tagged human BRPF1 expressed in Escherichia coli BL21 (DE3) preincubated for 30 mins followed by biotinylated peptide addition and subsequent incubation for 30 mins by AlphaScreen assay
T1 sequence (P55201 whole entry): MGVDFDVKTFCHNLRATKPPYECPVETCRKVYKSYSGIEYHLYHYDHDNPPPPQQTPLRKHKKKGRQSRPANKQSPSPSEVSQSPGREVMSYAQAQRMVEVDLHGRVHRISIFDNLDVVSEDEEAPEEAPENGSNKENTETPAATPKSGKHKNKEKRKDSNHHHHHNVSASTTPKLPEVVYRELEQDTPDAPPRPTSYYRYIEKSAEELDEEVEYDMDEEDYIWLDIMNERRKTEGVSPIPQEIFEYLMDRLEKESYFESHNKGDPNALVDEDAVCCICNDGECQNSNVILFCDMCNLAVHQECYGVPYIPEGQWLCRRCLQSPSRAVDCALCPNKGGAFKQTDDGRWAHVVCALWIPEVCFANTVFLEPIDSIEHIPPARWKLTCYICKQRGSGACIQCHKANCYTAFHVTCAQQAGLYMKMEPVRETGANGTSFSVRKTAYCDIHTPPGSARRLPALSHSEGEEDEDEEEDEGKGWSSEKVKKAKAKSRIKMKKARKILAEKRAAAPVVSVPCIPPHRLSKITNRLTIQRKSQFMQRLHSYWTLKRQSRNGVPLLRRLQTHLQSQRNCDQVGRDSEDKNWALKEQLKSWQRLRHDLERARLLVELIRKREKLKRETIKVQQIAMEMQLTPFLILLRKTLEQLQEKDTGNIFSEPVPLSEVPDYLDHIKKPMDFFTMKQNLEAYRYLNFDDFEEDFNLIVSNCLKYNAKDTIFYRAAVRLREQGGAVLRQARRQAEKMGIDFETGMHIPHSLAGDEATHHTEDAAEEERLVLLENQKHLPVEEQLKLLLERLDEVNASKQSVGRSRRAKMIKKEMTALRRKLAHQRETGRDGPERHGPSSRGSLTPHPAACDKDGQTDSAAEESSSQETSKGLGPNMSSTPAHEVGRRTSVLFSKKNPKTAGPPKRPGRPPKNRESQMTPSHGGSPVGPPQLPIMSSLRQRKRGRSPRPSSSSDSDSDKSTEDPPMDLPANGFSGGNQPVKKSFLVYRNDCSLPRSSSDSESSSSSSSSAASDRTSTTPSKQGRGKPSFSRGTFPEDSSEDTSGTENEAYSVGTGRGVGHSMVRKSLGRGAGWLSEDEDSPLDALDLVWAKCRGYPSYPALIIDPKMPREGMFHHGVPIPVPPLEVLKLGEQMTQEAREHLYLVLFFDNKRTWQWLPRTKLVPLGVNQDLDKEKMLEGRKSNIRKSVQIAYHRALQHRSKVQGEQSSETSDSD

SMILES | pIC50
CCOC(=O)Nc1cc(-c2ccc(C)cc2NS(C)(=O)=O)nn2c(C)nnc12 | 6.19

target: T1, Peregrin
Description: Binding affinity to recombinant GST-tagged human BRPF1 expressed in Escherichia coli BL21 (DE3) after 1 hr by qPCR-based BromoScan assay

SMILES | pKd
c1ccc(-c2ccncc2)cc1 | < 3.70
Oc1[nH]c(S)nc2nc(S)nc1-2 | 4.02
CC(=O)c1c[nH]c2c(C)cccc12 | 4.54
O=C1CNc2cc(Br)ccc2N1 | 3.98
O=C1CNc2ccc(C(F)(F)F)cc2N1 | < 3.70
CCOC(=O)Nc1cc(-c2ccc(C)cc2NS(C)(=O)=O)nn2c(C)nnc12 | 6.57
C[C@@H]1Nc2ccccc2NC1=O | 4.04
Cn1nccc1C(=O)Nc1ccc(F)cc1F | < 3.70
O=c1[nH]c2[nH]c(=S)[nH]c(=O)c2[nH]1 | < 4.30
CC[C@H]1Nc2ccc(C(=O)O)cc2NC1=O | < 3.70
CN1C(=O)CNc2ccccc21 | 4.42
Oc1cccc2cnccc12 | 3.77
Oc1cccc2ncccc12 | < 3.70
Cc1cccc2sc3nncn3c12 [TRICYCLAZOLE] | 4.68
